Data as given in patent publication US10729659B2, “Nanogel-mediated drug delivery” (The Cleveland Clinic Foundation, priority 2012, dated 2020).
≈ marks a conversion by molar mass, not a printed value.

Columns and labels:
p21 = assay: Western blotting of p21; type: cell-based, human; details: MCF-7/Adr
Description: (§1) Whole cell lysates, were made by lysing 1×10^6 treated or untreated cells, with RIPA buffer (Sigma-Aldrich, St. Louis, Mo.) containing 1× protease inhibitor cocktail (Calbiochem, Gibbstown, N.J.). Lysates were collected by centrifugation at 14,000 rpm for 15 min Protein concentration was determined by a bicinchoninic acid (BCA) assay kit (Pierce, Rockford, Ill.). 20-40 μg proteins of cell lysates were electrophoresed through 13.5% SD Spolyacrylamide gel or 4-15% linear pre-cast polyacrylamide gradient gel (Bio-Rad Laboratories, Hercules, Calif.) and transferred to polyvinylidene difluoride (PVDF) membranes (GE Healthcare Bio-sciences, corp., Piscataway, N.J.). The blots were probed for mouse monoclonal p21 (Cell Signaling Technology, Inc., Danvers, Mass.), mouse monoclonal DNMT1 (Abcam Inc., Cambridge, Mass.), and mouse monoclonal anti-actin (Sigma-Aldrich, St. Louis, Mo.). For detection of bound antibody, PVDF membrane was incubated with horse radish—tagged, goat anti-mouse antibody. After incubation membrane was washed with TBST, and stained with enhanced chemiluminescence (ECL) reagent or ECL plus reagent (GE Healthcare Bio-sciences, corp., Piscataway, N.J.) according to manufacturer protocol.

DNMT1 = molecular target: T1, DNMT1 (Homo sapiens, UniProt P26358); assay: Western blot of DNMT1 depletion in MCF-7/Adr cells; type: cell-based
T1 construct: Whole cell lysates were collected at the end of each time point and western blot was done for the expression of DNMT1; endogenous in cells; host or cells: MCF-7/Adr cells
Description: as §1, with “protocol. […]” for “protocol.”

[1] = DAC stability in cell culture media; type: physicochemical; details: 50 μg/mL, DMEM with 15% FBS, 37° C.
Description: Samples were incubated as 2 mL aliquots at 37° C., collected at various time points and lyophilized. To extract DAC from lyophilized samples 3 mL of methanol was added and kept on orbital rotating shaker at 100 rpm in cold room overnight.

[2] = DAC stability in liver extract; type: in vitro ADME; details: 15% w/v liver extract of athymic nude mice
Description: Freshly prepared DAC solution (50 μg/mL) or DAC loaded nanogel (equivalent drug concentration) was added in cell culture media (DMEM supplemented with 15% FBS and 1% penicillin-streptomycin), and incubated in cell culture incubator at 37° C. in a 5% CO2. Samples were incubated as 2 mL aliquots at 37° C., collected at various time points and lyophilized for 48 h at −48° C., 3.5 Pa, using FreeZone 4.5 (Labconco Corp., Kansas City, Mo.). DAC was extracted from lyophilized samples by adding 3 mL of methanol and kept on an orbital rotating shaker at 100 rpm in cold room overnight. 1 mL of methanolic extract was centrifuged at 14,000 rpm for 15 min at 4° C.; supernatant was collected and analyzed by HPLC. Identical protocol was followed for analyzing the stability of DAC in Mili Q water containing 15% heat inactivated or normal serum. Stability of DAC was also analyzed in 15% w/v liver extract of athymic nude mice using the indicated protocol.

MCF-7/Adr cells = assay: Cell viability assay, DAC solution vs DAC nanogel; type: cell-based; details: Homo sapiens, NCI/ADR-RES, read-out: IC50 value at day 12 post drug treatment
Description: Cytotoxicity of DAC in solution vs. DAC loaded nanogel was compared at day 5, 10 or 12 post drug additions in drug resistant cells. In a typical experiment; cells were seeded at 3000 cells/well in 96 well plates. 24 h post seeding, 0.1 mL cell culture media containing different concentrations of DAC solution or DAC nanogel was added and incubated for 3 d. Post incubation; cells were washed with 1×-DPBS and then replaced with drug free medium at every 48 h until cell viability was measured via an MTS assay kit (Promega CellTiter 96 AQueous Promega, Madison, Wis.). The effects of the drug on cell proliferation were calculated as the percentage cell growth vs. growth of control cells that received no drug treatment.
Cytotoxicity of DAC in solution vs. different DAC loaded nanogel formulations was compared at day 5, 10 or 12 post drug additions in drug resistant cells. In a typical experiment, cells were seeded at 3000 cells/well in 96 well plates. Twenty four hr post seeding, 0.1 mL cell culture media containing different concentrations of DAC solution or DAC nanogel was added and incubated for 3 d. […] Cell viability was measured using MTS (Promega CellTiter 96 AQueous Promega, Madison, Wis.). The effects of the drug on cell proliferation were calculated as the percentage cell growth vs. growth of control cells that received no drug treatment.

[3] = test system: MCF-7/Adr xenograft tumor; assay: In vivo anti-tumor efficacy, drug-resistant breast cancer model; set-up: species or system athymic nude mice; details: single intravenous dose 15 mg/kg; vs control nanogel, DAC in solution
Description: A murine drug-resistant breast cancer model (MCF-7/ADR) was used to investigate the anti-tumor efficacy of DAC nanogels. To establish tumors, 1×10^6 MCF-7/ADR cells were suspended in 100 μL of matrigel (BD biosciences San Jose, Calif.) and injected in the mammary fat pad via a 27 G ½ gauge needle. Tumor nodules were allowed to grow to about 300 mm3 prior to receiving DAC nanogels (drug dose 15 mg/kg) or its respective controls (DAC in solution or Control Nanogels) intravenously. Post single treatment, tumor dimensions were measured with a digital caliper at regular time intervals and the tumor volume was calculated using the formula [length×(width)^2]/2. […] Data were expressed as mean±SEM (n=3 to 6). Variances in tumor growth were determined using one-way ANOVA test followed by Tukey test using GraphPad Prism version 4.0 for Windows (p<0.05).
In vivo anti-tumor efficacy of DAC nanogels in athymic nude mice bearing MCF-7/Adr xenograft tumor: To establish tumors, 1×10^6 MCF-7/Adr cells were suspended in 100 μL of matrigel (BD biosciences San Jose, Calif.) and injected in the mammary fat pad via a 27 G ½ gauge needle. […] Tumor dimensions were measured with a digital caliper at regular time interval and the tumor volume was calculated using the formula [length×(width)2]/2. Data were expressed as mean±SEM (n=3 to 6). […]

[4] = cited from earlier work
[5] = rat model; cited from earlier work

T1 sequence (P26358 whole entry): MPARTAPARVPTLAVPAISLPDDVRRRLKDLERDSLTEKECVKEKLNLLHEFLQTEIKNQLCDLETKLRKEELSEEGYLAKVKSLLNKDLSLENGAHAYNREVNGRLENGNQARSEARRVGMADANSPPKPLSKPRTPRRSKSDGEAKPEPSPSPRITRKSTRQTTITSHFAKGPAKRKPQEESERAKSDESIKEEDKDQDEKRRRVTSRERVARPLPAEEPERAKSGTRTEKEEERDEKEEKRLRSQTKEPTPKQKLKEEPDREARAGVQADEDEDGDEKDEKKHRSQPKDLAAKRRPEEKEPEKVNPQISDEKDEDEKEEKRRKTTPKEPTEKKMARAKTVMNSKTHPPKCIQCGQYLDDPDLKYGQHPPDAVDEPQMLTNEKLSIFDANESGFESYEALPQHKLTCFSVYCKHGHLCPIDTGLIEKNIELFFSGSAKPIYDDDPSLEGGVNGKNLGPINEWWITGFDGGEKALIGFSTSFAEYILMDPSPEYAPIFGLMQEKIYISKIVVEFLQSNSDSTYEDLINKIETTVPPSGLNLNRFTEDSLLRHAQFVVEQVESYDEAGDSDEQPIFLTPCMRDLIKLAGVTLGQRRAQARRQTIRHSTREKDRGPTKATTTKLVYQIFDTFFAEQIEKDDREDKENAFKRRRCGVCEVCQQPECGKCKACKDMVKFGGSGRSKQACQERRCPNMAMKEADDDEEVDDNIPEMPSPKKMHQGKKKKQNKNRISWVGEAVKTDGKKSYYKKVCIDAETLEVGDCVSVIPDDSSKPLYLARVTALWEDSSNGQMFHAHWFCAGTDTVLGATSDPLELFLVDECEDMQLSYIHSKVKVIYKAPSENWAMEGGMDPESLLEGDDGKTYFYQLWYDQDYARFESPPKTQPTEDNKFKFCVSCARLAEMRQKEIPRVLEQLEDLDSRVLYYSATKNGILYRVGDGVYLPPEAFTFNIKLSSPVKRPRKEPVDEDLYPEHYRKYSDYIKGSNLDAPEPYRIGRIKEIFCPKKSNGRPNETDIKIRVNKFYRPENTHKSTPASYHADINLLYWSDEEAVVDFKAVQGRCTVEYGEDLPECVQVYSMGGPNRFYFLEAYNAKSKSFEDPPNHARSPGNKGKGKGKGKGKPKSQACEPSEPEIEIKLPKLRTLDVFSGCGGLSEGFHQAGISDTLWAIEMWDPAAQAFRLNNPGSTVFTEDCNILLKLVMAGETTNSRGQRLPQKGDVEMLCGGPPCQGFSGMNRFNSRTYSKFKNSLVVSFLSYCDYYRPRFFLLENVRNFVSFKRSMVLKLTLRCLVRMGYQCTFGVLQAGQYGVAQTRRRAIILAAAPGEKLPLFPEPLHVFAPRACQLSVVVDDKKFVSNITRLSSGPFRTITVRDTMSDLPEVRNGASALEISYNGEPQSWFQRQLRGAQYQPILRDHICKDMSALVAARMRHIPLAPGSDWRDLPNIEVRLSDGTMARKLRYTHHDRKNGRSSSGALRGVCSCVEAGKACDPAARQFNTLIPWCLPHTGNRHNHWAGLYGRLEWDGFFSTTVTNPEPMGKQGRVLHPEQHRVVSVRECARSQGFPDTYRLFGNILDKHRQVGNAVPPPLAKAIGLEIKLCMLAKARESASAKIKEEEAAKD

## Nc1ncn([C@H]2C[C@H](O)[C@@H](CO)O2)c(=O)n1 [DAC, 5-aza-2′-deoxycytidine]
p21
  p21 protein expression (immunoblotting): significant increase
DNMT1; 50 ng/mL
  Duration of DNMT1 depletion: 24 h
DNMT1; 2, 3 and 5 days post treatment
  DNMT1 levels vs untreated: No difference in DNMT1 levels
[1]
  No detectable levels of DAC at: 8 h
[1]; 1 h
  DAC degraded within an hour: 60%
[2]
  Complete degradation of DAC, time post incubation: 60 min
MCF-7/Adr cells
  IC50: 0.434 µg/mL (≈ 1.9 µM)
[3]
  Tumor growth / tumor size: not different
[4]
  In vivo half life: 10 to 30 min
[4]; in vivo
  Plasma protein binding: poor plasma protein binding
[5]
  Carcinogenicity: has not
